For 6 compounds, MIC, responders and pest or weed control results are on record in patent US4965280A, “Antifungal carbinols” (E. I. Du Pont de Nemours and Company, priority 1989, dated 1990).

The subject of assay [1] is Aspergillus fumigatus ATCC 28214. The experiment in a line: In vitro antifungal MIC, microtiter broth dilution. As to conditions: Aspergillus fumigatus, ATCC28214, 24 h, read-out: MIC values, A. fumigatus, 30°, 24 hours. In general terms: Broth dilution looks for growth in wells or tubes with falling amounts of substance.
In assay [2] the test system is Candida albicans ATCC 11651. The experiment in a line: In vivo systemic Candida infection in mice, primary assay. As to conditions: Candida albicans, 150 mg/kg per day, read-out: % Survival. Further details: species or system Candida albicans; CF-1 female mice. In a few lines:
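CF-1 female mice (20 g, 10 per group) were infected IV with 0.2 ml of 1×10^7/ml C. albicans ATCC 11651, then given test compound subcutaneously at 50 or 150 mg/kg/day at 1 and 6 h post-infection and once daily for three more days. Survival was followed for 21 days against infected untreated mice; ≥70% protection at 14 days was scored active.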

Another assay has as its system Sclerotium rolfsii. Description: Example M southern blight. The format is in vivo. To be noted: Agroathelia rolfsii, 336 h; 5 kg/ha; read-out: disease control rating, Ex. M. As to the method: […] Seeds and soil were then inoculated with a mixture of sand, cereal and mycelium of the fungus Sclerotium rolfsii, causal agent of sourthern blight, and incubated in a growth chamber at 30° C. for 14 days. Disease ratings were then made.

For assay [3], the system named is Cercosporidium personatum. Description: Example B Peanut Late Leafspot. It is filed as in vivo. As to conditions: Nothopassalora personata; 100 PPM; read-out: disease control rating, Ex. B. A digest of the protocol:
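Compounds were dissolved in acetone (6% of final volume) and suspended at 100 or 20 ppm in purified water containing 250 ppm TREM 014 surfactant (polyhydric alcohol esters). The suspension was sprayed to run-off on peanut seedlings.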

In a further assay the test system is Venturia inaequalis. Description: Example A apple scab. The format is in vivo. To be noted: 100 PPM, read-out: disease control rating, Ex. A. In a few lines: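 Test compounds were dissolved in acetone (6% of final volume) and suspended at 100 or 20 ppm in purified water containing 250 ppm of the surfactant TREM 014 (polyhydric alcohol esters). Apple seedlings were sprayed with this suspension to the point of run-off.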

For the next assay, the system named is Pyricularia oryzae. Description: whole plant or invertebrate. As to conditions: Pyricularia oryzae, 120 h, read-out: disease control rating, Ex. E, 100 PPM. The format is in vivo.
In a further assay the test system is Puccinia recondita. Description: Example G wheat leaf rust. The format is in vivo. To be noted: 100 PPM, read-out: disease control rating, Ex. G.
The test system of another assay is Rhizoctonia solani. Description: Example F rice sheath blight. The format is in vivo. To be noted: Rhizoctonia solani, 144 h, 100 PPM; read-out: disease control rating, Ex. F. In a few lines:
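Compounds, dissolved in acetone at 6% of final volume, were suspended at 100 or 20 ppm in purified water with 250 ppm polyhydric alcohol ester surfactant (TREM 014). Rice seedlings were sprayed with this suspension to run-off.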

For another assay, the system named is SCIRPUS. Description: Test C rice paddy. To be noted: Bolboschoenus maritimus, 504 h, 21 days, read-out: plant response; for pest or weed control at 64 g/ha: 0064 G/HA; for pest or weed control at 125 g/ha: 0125 G/HA; for pest or weed control at 250 g/ha: 0250 G/HA; for pest or weed control at 500 g/ha: 0500 G/HA. The format is in vivo, Scirpus paludosus. The source says:
(§1) Sixteen cm diameter Airlite plastic pots were partially filled with Tama slit loam soil and the soil saturated with water. Japonica and Indica rice seedlings a the 2.0 to 2.5 leaf stage were transplanted into 1/3 of the pots. Into another third of the pots were transplanted seedling or sprouted tubers of water plantain (Alisma trivale), Scripus (Scirpus paludosus), Cyperus (Cyperus esculentus), and arrowhead (Sagittaria spp.). The remaining pots were planted with barnyardgrass (Echinochloa crusgalli) seeds and sprouted tubes of water chestnut (Eleocharis spp.). These weeds all represent major rice weeds or genera of weeds important in rice. Three to four days after planting, the water level was raised to 3 cm (about 1200 ml/pot) and maintained a this level throughout the test. Chemical treatments were applied directly to the paddy water, within 24 hours of raising the water, after being formulated in a nonphytotoxic solvent. The pots were maintained in the greenhouse.

A further assay deals with RICE JAP EFF. Description: Test C rice paddy. The format is in vivo, Japonica rice. As to conditions: Oryza sativa, 504 h, 21 days, read-out: plant response; for pest or weed control at 64 g/ha: 0064 G/HA; for pest or weed control at 125 g/ha: 0125 G/HA; for pest or weed control at 250 g/ha: 0250 G/HA; for pest or weed control at 500 g/ha: 0500 G/HA.
Source text: as §1

The test system of a further assay is WATER PLAINTAIN
The experiment in a line: Test C rice paddy. It is filed as in vivo, Alisma trivale. To be noted: 504 h, 21 days, read-out: plant response; for pest or weed control at 64 g/ha: 0064 G/HA; for pest or weed control at 125 g/ha: 0125 G/HA; for pest or weed control at 250 g/ha: 0250 G/HA; for pest or weed control at 500 g/ha: 0500 G/HA.
Source text: as §1

The subject of the next assay is ARROWHEAD
Description: Test C rice paddy. As to conditions: Sagittaria, 504 h, 21 days, read-out: plant response; for pest or weed control at 64 g/ha: 0064 G/HA; for pest or weed control at 125 g/ha: 0125 G/HA; for pest or weed control at 250 g/ha: 0250 G/HA; for pest or weed control at 500 g/ha: 0500 G/HA. It is filed as in vivo, Sagittaria spp.
Source text: as §1

Another assay relates to BARNYARDGRASS
Description: Test C rice paddy. The format is in vivo, Echinochloa crusgalli. As to conditions: Echinochloa crus-galli, 504 h, 21 days, read-out: plant response; for pest or weed control at 64 g/ha: 0064 G/HA; for pest or weed control at 125 g/ha: 0125 G/HA; for pest or weed control at 250 g/ha: 0250 G/HA; for pest or weed control at 500 g/ha: 0500 G/HA.
Source text: as §1

In brackets after ≈: the same amount, converted by molar mass. Read-outs that look alike come from different tables or passages of the source.

By MIC is commonly meant the lowest concentration that inhibits growth of the organism. As for `C=C(c1ccc(F)cc1)C(O)(Cn1cncn1)c1ccc(F)cc1F` (stereo not drawn) [Example 4, 2-(2,4-Difluorophenyl)-3-(4-fluorophenyl)-1-(1H-1,2,4-triazol-1-yl)-3-buten-2-ol], the MIC in assay [1] amounted to 0.8 µg/mL (≈ 2.32 µM). The responders at 150 mg/kg in [2] (ATCC11651, 168 h, day 7) was 100%; in assay [2] (ATCC11651, 336 h, day 14), 50%. The pest or weed control at 5000 g/ha in the assay with Sclerotium rolfsii worked out at 0%. Besides, the pest or weed control at 100 ppm is 100% in [3]; 100% with Venturia inaequalis; 96% in the assay with Pyricularia oryzae; 100% in the assay with Puccinia recondita; 100% with Rhizoctonia solani.

In the case of `C=C(c1ccccc1)C(O)(Cn1cncn1)c1ccc(Cl)cc1Cl` (stereo not drawn) [Example 50, 2-(2,4-Dichlorophenyl)-3-phenyl-1-(1H-1,2,4-triazol-1-yl)-3-buten-2-ol], the pest or weed control at 64 g/ha with SCIRPUS, in the assay on RICE JAP EFF, in the assay on WATER PLAINTAIN, with ARROWHEAD and in the assay on BARNYARDGRASS was 0% throughout. In addition, the pest or weed control at 125 g/ha in the assay with SCIRPUS, in the assay with RICE JAP EFF, with WATER PLAINTAIN, with ARROWHEAD and in the assay with BARNYARDGRASS was 0% each time. Also, the pest or weed control at 250 g/ha in the assay with SCIRPUS came out at 0%; with RICE JAP EFF it was 30%; in the assay on WATER PLAINTAIN it was 0%; with ARROWHEAD, 0%; in the assay on BARNYARDGRASS, 60%. Further, the pest or weed control at 500 g/ha in the assay on SCIRPUS came out at 0%; in the assay on RICE JAP EFF it was 60%; with WATER PLAINTAIN it was 0%; with ARROWHEAD it was 30%; in the assay with BARNYARDGRASS it was 70%. For the same compound, the pest or weed control at 1000 g/ha in the assay on SCIRPUS was 0%; in the assay with RICE JAP EFF it was 70%; with WATER PLAINTAIN it was 0%; in the assay on ARROWHEAD it was 50%; in the assay with BARNYARDGRASS, 70%. Also, the MIC in assay [1] came to 0.8 µg/mL (≈ 2.22 µM). For the same compound, the responders at 150 mg/kg in [2] (ATCC11651, 168 h, day 7) worked out at 100%; in assay [2] (ATCC11651, 336 h, day 14), 90%; in [2] (ATCC11651, 504 h, day 21) it was 50%. Besides, the pest or weed control at 100 ppm in assay [3] was found to be 100%; in the assay on Venturia inaequalis it was 100%; in the assay on Pyricularia oryzae, 86%; in the assay with Puccinia recondita it was 100%; in the assay with Rhizoctonia solani it was 93%.

Consider `C=C(c1ccccc1)C(O)(Cn1cncn1)c1ccc(Cl)cc1` (stereo not drawn) [Example 51, 2-(4-Chlorophenyl)-3-phenyl-1-(1H-1,2,4-triazol-1-yl)-3-buten-2-ol], for which, in [1], the MIC turned out to be 3.2 µg/mL (≈ 9.82 µM). The responders at 150 mg/kg in assay [2] (ATCC11651, 168 h, day 7) was found to be 100%; in [2] (ATCC11651, 336 h, day 14), 100%; in assay [2] (ATCC11651, 504 h, day 21), 80%. Besides, the pest or weed control at 100 ppm in [3] was found to be 100%; in the assay with Venturia inaequalis it was 100%; with Pyricularia oryzae, 0%; with Puccinia recondita, 100%; with Rhizoctonia solani, 100%.

As to `C=C(c1ccccc1)C(O)(Cn1cncn1)c1ccc(F)cc1F` (stereo not drawn) [Example 52, 2-(2,4-Difluorophenyl)-3-phenyl-1-(1H-1,2,4-triazol-1-yl)-3-buten-2-ol], in [1], the MIC was 0.4 µg/mL (≈ 1.22 µM). In addition, the responders at 150 mg/kg was 100% in [2] (ATCC11651, 168 h, day 7); 100% in [2] (ATCC11651, 336 h, day 14); 90% in [2] (ATCC11651, 504 h, day 21). Also, the pest or weed control at 5000 g/ha in the assay with Sclerotium rolfsii worked out at 0%. Besides, the pest or weed control at 100 ppm was determined as 100% in [3]; 100% in the assay on Venturia inaequalis; 93% with Pyricularia oryzae; 100% with Puccinia recondita; 81% with Rhizoctonia solani.

Turning to `C=C(c1ccc(Cl)cc1Cl)C(O)(Cn1cncn1)c1ccccc1F` (stereo not drawn) [Example 107], the pest or weed control at 64 g/ha in the assay with SCIRPUS, in the assay on RICE JAP EFF, with WATER PLAINTAIN, in the assay on ARROWHEAD and in the assay with BARNYARDGRASS was 0% each time. In addition, the pest or weed control at 125 g/ha in the assay with SCIRPUS, in the assay on RICE JAP EFF, with WATER PLAINTAIN, in the assay on ARROWHEAD and in the assay on BARNYARDGRASS was 0% each time. The pest or weed control at 250 g/ha in the assay on SCIRPUS stood at 60%; in the assay on RICE JAP EFF, 30%; with WATER PLAINTAIN, 0%; with ARROWHEAD, 0%; with BARNYARDGRASS it was 40%. The pest or weed control at 500 g/ha in the assay on SCIRPUS amounted to 80%; in the assay on RICE JAP EFF it was 40%; in the assay with WATER PLAINTAIN it was 60%; in the assay on ARROWHEAD it was 95%; in the assay with BARNYARDGRASS, 90%. Moreover, the pest or weed control at 1000 g/ha with SCIRPUS came to 80%; with RICE JAP EFF, 50%; in the assay with WATER PLAINTAIN it was 80%; in the assay on ARROWHEAD, 70%; with BARNYARDGRASS it was 80%.

On to `C=C(c1ccc(F)cc1)C(O)(Cn1cncn1)c1ccccc1F` (stereo not drawn) [Example 644], for which, in [1], the MIC turned out to be 0.4 µg/mL (≈ 1.22 µM). Further, the responders at 150 mg/kg in [2] (ATCC11651, 168 h, day 7) was 80%; in assay [2] (ATCC11651, 336 h, day 14), 70%; in assay [2] (ATCC11651, 504 h, day 21) it was 50%. Further, the pest or weed control at 100 ppm (in assay [3]; in the assay on Venturia inaequalis; in the assay with Pyricularia oryzae; in the assay with Puccinia recondita; in the assay on Rhizoctonia solani) was 100% throughout.
